Key:
sperm in vas = assay: non-GLP study, in vivo effect on motility and viability of sperm in vas; conditions: injection, 0.2 mg/kg body weight; saline injected controls 35%
Description: In another non-GLP study, the in vivo effect of diltiazem on motility and viability of sperm in vas was observed.

vasa deferentia = conditions: rat, in vivo
Protocol: A dose ranging non-GLP study was conducted in rats to determine the local toxic effect of diltiazem on vasa deferentia.

COc1ccc([C@@H]2Sc3ccccc3N(CCN(C)C)C(=O)[C@@H]2OC(C)=O)cc1 [diltiazem]
percentage of non-viable sperm (sperm in vas): 92%
changes in the histology of the vas (vasa deferentia; 0.2 mg/kg): did not cause any changes in the histology of the vas
effect on the vas (vasa deferentia; 2 mg/kg): no effect on the vas
mortality of rats (vasa deferentia; 50 mg/kg): no mortality

Source: patent publication US20040138198A1, “Vasectomy procedure and related kit” (priority 2001, published 2004)
